Measured values taken from ChEMBL document CHEMBL5647692, “The novel dual PI3K/mTOR inhibitor NVP-BGT226 displays cytotoxic activity in both normoxic and hypoxic hepatocarcinoma cells” (Oncotarget, 2015).
Active and inactive are the calls of the source. The rule behind the calls is not given here.

How the values were obtained:
SNU-449 [1] = assay: Cytotoxicity against human SNU-449 cells assessed as reduction in cell viability incubated for 24 hrs under hypoxia condition by MTT assay; assay type: functional, cell-based
SNU-475 [2] = assay: Induction of autophagy in human SNU-475 cells assessed as increase in LC3I to LC3II conversion at 0.5 uM incubated for 24 hrs under hypoxia condition by Western blot analysis; assay type: functional, cell-based
SNU-475 [3] = assay: Cytotoxicity against human SNU-475 cells assessed as reduction in cell viability at 0.5 to 5 uM incubated for 24 hrs by MTT assay; assay type: functional, cell-based; conditions: dose 0.5-5 µM
Mahlavu [4] = assay: Induction of autophagy in human Mahlavu cells assessed as decreased expression of SQSTM1/p62 level incubated for 24 hrs under hypoxia condition by Western blot analysis; assay type: functional, cell-based; conditions: dose 0.1-0.5 µM
Mahlavu [5] = assay: Induction of autophagy in human Mahlavu cells assessed as reduction in cytotoxicity at 0.5 uM incubated for 24 hrs by MTT assay; assay type: functional, cell-based
[6] = Inhibition of PI3K/Akt/mTOR signaling pathway in human Hep3B cells assessed as reduction in phosphorylation of Akt incubated for 1 hr under normoxia condition by Western blotting analysis; assay type: cell-based; conditions: dose 0.25-1 µM
Mahlavu [7] = assay: Cytotoxicity against human Mahlavu cells assessed as reduction in cell viability incubated for 48 hrs by MTT assay; assay type: functional, cell-based
[8] = Inhibition of PI3K/Akt/mTOR signaling pathway in human Mahlavu cells assessed as reduction in phosphorylation of Akt incubated for 1 hr under normoxia condition by Western blotting analysis; assay type: cell-based; conditions: dose 0.25-1 µM
Mahlavu [9] = assay: Cytotoxicity against human Mahlavu cells assessed as reduction in cell viability incubated for 24 hrs under normoxia condition by MTT assay; assay type: functional, cell-based
[10] = Inhibition of PI3K/Akt/mTOR signaling pathway in human SNU-475 cells assessed as reduction in phosphorylation of GSK3 alpha/beta incubated for 1 hr under normoxia condition by Western blotting analysis; assay type: cell-based; conditions: dose 0.25-1 µM
SNU-475 [11] = assay: Cytotoxicity against human SNU-475 cells assessed as reduction in cell viability incubated for 24 hrs under hypoxia condition by MTT assay; assay type: functional, cell-based
[12] = Inhibition of PI3K/Akt/mTOR signaling pathway in human Mahlavu cells assessed as reduction in phosphorylation of GSK3 alpha/beta incubated for 1 hr under normoxia condition by Western blotting analysis; assay type: cell-based; conditions: dose 0.25-1 µM
SNU-475 [13] = assay: Induction of autophagy in human SNU-475 cells assessed as reduction in cytotoxicity at 0.5 uM incubated for 24 hrs by MTT assay; assay type: functional, cell-based
SNU-449 [14] = assay: Induction of apoptosis in human SNU-449 cells assessed as early apoptotic cells at 1.5 uM incubated for 24 hrs by Annexin-V/7-AAD staining based muse cell analyzer method (reference value: 3.95 %); assay type: functional
SNU-475 [15] = assay: Induction of autophagy in human SNU-475 cells assessed as increase expression of LC3 A/B II at 0.5 uM incubated for 24 hrs in presence of chloroquine under hypoxia condition by Western blot analysis; assay type: functional, cell-based
Mahlavu [16] = assay: Induction of apoptosis in human Mahlavu cells assessed as viable cells at 0.66 uM incubated for 24 hrs by Annexin-V/7-AAD staining based muse cell analyzer method (reference value: 90.52 %); assay type: functional; conditions: read-out: Activity
Mahlavu [17] = assay: Induction of apoptosis in human Mahlavu cells assessed as viable cells at IC50 incubated for 24 hrs in presence of Z-VAD-fmk by Annexin-V/7-AAD staining based muse cell analyzer method (reference value: 90.52 %); assay type: functional
Mahlavu [18] = assay: Cytotoxicity against human Mahlavu cells assessed as reduction in cell viability at 0.5 uM incubated for 24 hrs in presence of 3-Methyladenine under hypoxia condition by MTT assay; assay type: functional, cell-based
Hep 3B2 [19] = assay: Induction of apoptosis in human Hep3B cells incubated for 24 hrs by Annexin-V/7-AAD staining based muse cell analyzer method; assay type: functional; conditions: dose 0.01-0.5 µM
Mahlavu [20] = assay: Cytotoxicity against human Mahlavu cells assessed as reduction in cell viability at 0.5 to 5 uM incubated for 24 hrs by MTT assay; assay type: functional, cell-based; conditions: dose 0.5-5 µM
SNU-475 [21] = assay: Cytotoxicity against human SNU-475 cells assessed as reduction in cell viability at 0.5 uM incubated for 24 hrs in presence of chloroquine by MTT assay; assay type: functional, cell-based
Mahlavu [22] = assay: Induction of apoptosis in human Mahlavu cells assessed as cleaved Caspase 7 level at 0.5 uM incubated for 24 hrs by Western blotting analysis; assay type: functional, cell-based
SNU-475 [23] = assay: Induction of autophagy in human SNU-475 cells assessed as reduction in SQSTM1/p62 level by Western blot analysis; assay type: functional, cell-based; conditions: dose 0.1-0.5 µM
SNU-449 [24] = assay: Induction of apoptosis in human SNU-449 cells assessed as late apoptotic cells at IC50 concentration incubated for 24 hrs in presence of Z-VAD-fmk by Annexin-V/7-AAD staining based muse cell analyzer method (reference value: 5.03 %); assay type: functional
[25] = Inhibition of PI3K/Akt/mTOR signaling pathway in human Mahlavu cells assessed as reduction in phosphorylation of Akt at 1 to 10 nM incubated for 1 hr under normoxia condition by Western blotting analysis; assay type: cell-based; conditions: dose 1-10 nM
Hep 3B2 [26] = assay: Cytotoxicity against human Hep3B cells assessed as reduction in cell viability incubated for 24 hrs under hypoxia condition by MTT assay; assay type: functional, cell-based
Hep 3B2 [27] = assay: Cytotoxicity against human Hep3B cells assessed as reduction in cell viability incubated for 48 hrs by MTT assay; assay type: functional, cell-based
SNU-449 [28] = assay: Induction of apoptosis in human SNU-449 cells assessed as viable cells at IC50 concentration incubated for 24 hrs in presence of Z-VAD-fmk by Annexin-V/7-AAD staining based muse cell analyzer method (reference value: 90.07 %); assay type: functional
[29] = Inhibition of PI3K/Akt/mTOR signaling pathway in human Mahlavu cells assessed as reduction in S6 phosphorylation at 1 to 10 nM incubated for 1 hr under normoxia condition by Western blotting analysis; assay type: cell-based; conditions: dose 1-10 nM
[30] = Inhibition of PI3K/Akt/mTOR signaling pathway in human SNU-475 cells assessed as reduction in phosphorylation of mTORC1 substrate S6 incubated for 1 hr under normoxia condition by Western blotting analysis; assay type: cell-based; conditions: dose 0.25-1 µM
SNU-475 [31] = assay: Induction of autophagy in human SNU-475 cells assessed as upregulation of LC3A/B II level by Western blot analysis; assay type: functional, cell-based; conditions: dose 0.1-0.5 µM
[32] = Inhibition of PI3K/Akt/mTOR signaling pathway in human SNU-475 cells assessed as reduction in S6 phosphorylation at 1 to 10 nM incubated for 1 hr under hypoxia condition by Western blotting analysis; assay type: cell-based; conditions: dose 1-10 nM
SNU-475 [33] = assay: Induction of apoptosis in human SNU-475 cells assessed as cleaved Caspase 7 level at 0.5 uM incubated for 24 hrs by Western blotting analysis; assay type: functional, cell-based
[34] = Inhibition of PI3K/Akt/mTOR signaling pathway in human Mahlavu cells assessed as reduction in phosphorylation of mTORC1/2 incubated for 1 hr under normoxia condition by Western blotting analysis; assay type: cell-based; conditions: dose 0.25-1 µM
Mahlavu [35] = assay: Induction of autophagy in human Mahlavu cells assessed as increase in LC3I to LC3II conversion at 0.5 uM incubated for 24 hrs under hypoxia condition by Western blot analysis; assay type: functional, cell-based
Mahlavu [36] = assay: Induction of apoptosis in human Mahlavu cells assessed as early apoptotic cells at 0.66 uM incubated for 24 hrs by Annexin-V/7-AAD staining based muse cell analyzer method (reference value: 6.57 %); assay type: functional

**Q.** Which results are given for `COc1ccc(-c2ccc3ncc4c(c3c2)n(-c2ccc(N3CCNCC3)c(C(F)(F)F)c2)c(=O)n4C)cn1` [BGT-226 FREE BASE]?
**A.** Activity (SNU-449 [1]): Active; Activity (SNU-475 [2]): Dose-Dependent Effect; Activity (SNU-475 [3]): Active; Activity (Mahlavu [4]): Dose-Dependent Effect; Activity (Mahlavu [5]): Active; inhibition [6]: Dose-Dependent Effect; IC50 (Mahlavu [7]): 0.55 µM; inhibition [8]: Dose-Dependent Effect; Activity (Mahlavu [9]): Active; inhibition [10]: Dose-Dependent Effect; Activity (SNU-475 [11]): Active; inhibition [12]: Dose-Dependent Effect; Activity (SNU-475 [13]): Active; Activity (SNU-449 [14]): 18.2%; Activity (SNU-475 [15]): Active; viability at 0.66 µM (Mahlavu [16]): 50.8%; Activity (Mahlavu [17]): 81.63%; Activity (Mahlavu [18]): Active; Activity (Hep 3B2 [19]): Dose-Dependent Effect; Activity (Mahlavu [20]): Active; Activity (SNU-475 [21]): Active; Activity (Mahlavu [22]): Active; Activity (SNU-475 [23]): Dose-Dependent Effect; Activity (SNU-449 [24]): 4.05%; inhibition [25]: Active; Activity (Hep 3B2 [26]): Active; IC50 (Hep 3B2 [27]): 1.22 µM; Activity (SNU-449 [28]): 83.56%; inhibition [29]: Active; inhibition [30]: Dose-Dependent Effect; Activity (SNU-475 [31]): Dose-Dependent Effect; inhibition [32]: Active; Activity (SNU-475 [33]): Active; inhibition [34]: Dose-Dependent Effect; Activity (Mahlavu [35]): Dose-Dependent Effect; Activity (Mahlavu [36]): 47.22%
